Experimental data published in ChEMBL document CHEMBL3232991, “New polyfunctional imidazo[4,5-C]pyridine motifs: synthesis, crystal studies, docking studies and antimicrobial evaluation” (Eur J Med Chem, 2014).
Values after ≈ are worked out from the molar mass of the structure shown. Active and inactive are the calls of the source. The calls are words filed in the database; no cut-off is given here.

Assays:
Pseudomonas aeruginosa [1] = assay: Antibacterial activity against Pseudomonas aeruginosa MTCC 4727 assessed as diameter of growth inhibition zone at 500 ug/ml after 20 hrs by agar disc diffusion method; assay type: functional; settings: for zone of inhibition at 500 µg/mL: MTCC 4727, 20 h, read-out: DIZ
Staphylococcus aureus [2] = assay: Antibacterial activity against Staphylococcus aureus MTCC 4102 assessed as diameter of growth inhibition zone at 1000 ug/ml after 20 hrs by agar disc diffusion method; assay type: functional
Staphylococcus aureus [3] = assay: Antibacterial activity against Staphylococcus aureus MTCC 4102 assessed as diameter of growth inhibition zone at 500 ug/ml after 20 hrs by agar disc diffusion method; assay type: functional
Saccharomyces cerevisiae [4] = assay: Antifungal activity against Saccharomyces cerevisiae NCIM 3044 assessed as diameter of growth inhibition zone at 500 ug/ml after 4 days by agar disc diffusion method; assay type: functional
Candida albicans [5] = assay: Antifungal activity against Candida albicans MTCC 183 assessed as diameter of growth inhibition zone at 1000 ug/ml after 4 days by agar disc diffusion method; assay type: functional; settings: for zone of inhibition at 1000 µg/mL: MTCC 183, 96 h, read-out: DIZ
Saccharomyces cerevisiae [6] = assay: Antifungal activity against Saccharomyces cerevisiae NCIM 3044 assessed as diameter of growth inhibition zone at 1000 ug/ml after 4 days by agar disc diffusion method; assay type: functional
Candida albicans [7] = assay: Antifungal activity against Candida albicans MTCC 183 assessed as diameter of growth inhibition zone at 500 ug/ml after 4 days by agar disc diffusion method; assay type: functional; settings: for zone of inhibition at 500 µg/mL: MTCC 183, 96 h, read-out: DIZ
Bacillus cereus [8] = assay: Antibacterial activity against Bacillus cereus NCIM 2155 assessed as diameter of growth inhibition zone at 500 ug/ml after 20 hrs by agar disc diffusion method; assay type: functional; settings: for zone of inhibition at 500 µg/mL: NCIM 2155, 20 h, read-out: DIZ
Escherichia coli [9] = assay: Antibacterial activity against Escherichia coli NCIM 2931 assessed as diameter of growth inhibition zone at 1000 ug/ml after 20 hrs by agar disc diffusion method; assay type: functional; settings: for zone of inhibition at 1000 µg/mL: NCIM 2931, 20 h, read-out: DIZ
Escherichia coli [10] = assay: Antibacterial activity against Escherichia coli NCIM 2931 assessed as diameter of growth inhibition zone at 500 ug/ml after 20 hrs by agar disc diffusion method; assay type: functional; settings: for zone of inhibition at 500 µg/mL: NCIM 2931, 20 h, read-out: DIZ
Pseudomonas aeruginosa [11] = assay: Antibacterial activity against Pseudomonas aeruginosa MTCC 4727 assessed as diameter of growth inhibition zone at 1000 ug/ml after 20 hrs by agar disc diffusion method; assay type: functional; settings: for zone of inhibition at 1000 µg/mL: MTCC 4727, 20 h, read-out: DIZ
Bacillus cereus [12] = assay: Antibacterial activity against Bacillus cereus NCIM 2155 assessed as diameter of growth inhibition zone at 1000 ug/ml after 20 hrs by agar disc diffusion method; assay type: functional; settings: for zone of inhibition at 1000 µg/mL: NCIM 2155, 20 h, read-out: DIZ
Candida albicans [13] = assay: Antifungal activity against Candida albicans MTCC 183 assessed as assessed as growth inhibition after 48 hrs by broth microdilution method; assay type: functional, organism-based; settings: MTCC 183, 48 h
Saccharomyces cerevisiae [14] = assay: Antifungal activity against Saccharomyces cerevisiae NCIM 3044 assessed as growth inhibition after 48 hrs by broth microdilution method; assay type: functional, organism-based; settings: NCIM 3044, 48 h
Bacillus cereus [15] = assay: Antibacterial activity against Bacillus cereus NCIM 2155 assessed as diameter of growth inhibition zone at 10 ug/ml after 20 hrs by agar disc diffusion method; assay type: functional
Pseudomonas aeruginosa [16] = assay: Antibacterial activity against Pseudomonas aeruginosa MTCC 4727 assessed as diameter of growth inhibition zone at 10 ug/ml after 20 hrs by agar disc diffusion method; assay type: functional
Escherichia coli [17] = assay: Antibacterial activity against Escherichia coli NCIM 2931 assessed as diameter of growth inhibition zone at 10 ug/ml after 20 hrs by agar disc diffusion method; assay type: functional
Saccharomyces cerevisiae [18] = assay: Antifungal activity against Saccharomyces cerevisiae NCIM 3044 assessed as diameter of growth inhibition zone at 10 ug/ml after 4 days by agar disc diffusion method; assay type: functional
Candida albicans [19] = assay: Antifungal activity against Candida albicans MTCC 183 assessed as diameter of growth inhibition zone at 10 ug/ml after 4 days by agar disc diffusion method; assay type: functional
Staphylococcus aureus [20] = assay: Antibacterial activity against Staphylococcus aureus MTCC 4102 assessed as diameter of growth inhibition zone at 10 ug/ml after 20 hrs by agar disc diffusion method; assay type: functional

| SMILES | diameter of the inhibition zone (DIZ) (Staphylococcus aureus [2]) | diameter of the inhibition zone (DIZ) (Staphylococcus aureus [3]) | diameter of the inhibition zone (DIZ) (Saccharomyces cerevisiae [4]) | diameter of the inhibition zone (DIZ) (Saccharomyces cerevisiae [6]) | diameter of the inhibition zone (DIZ) (Bacillus cereus [8]) | diameter of the inhibition zone (DIZ) (Escherichia coli [9]) | diameter of the inhibition zone (DIZ) (Escherichia coli [10]) | diameter of the inhibition zone (DIZ) (Bacillus cereus [12]) | diameter of the inhibition zone (DIZ) (Pseudomonas aeruginosa [1]) | diameter of the inhibition zone (DIZ) (Candida albicans [5]) | diameter of the inhibition zone (DIZ) (Candida albicans [7]) | diameter of the inhibition zone (DIZ) (Pseudomonas aeruginosa [11]) | also measured |
| --- | --- | --- | --- | --- | --- | --- | --- | --- | --- | --- | --- | --- | --- |
| Cc1cccc(Cc2nc3c(N4CCCC(C#N)C4)ncc(-c4cccc(F)c4)c3[nH]2)c1 (stereo not drawn) | inactive | inactive | inactive | inactive | inactive | inactive | inactive | inactive |  |  |  |  | zone of inhibition at 500 µg/mL (Pseudomonas aeruginosa [1]): 6.2 mm; zone of inhibition at 1000 µg/mL (Candida albicans [5]): 15 mm; zone of inhibition at 500 µg/mL (Candida albicans [7]): 6.8 mm; zone of inhibition at 1000 µg/mL (Pseudomonas aeruginosa [11]): 13 mm; IC50 (Candida albicans [13]): 206 µg/mL (≈ 485 µM); MIC (Candida albicans [13]): 404 µg/mL (≈ 950 µM) |
| N#CC1CCCN(c2ncc(-c3cccc(F)c3)c3[nH]c(COc4ccccc4)nc23)C1 (stereo not drawn) | inactive | inactive |  |  |  | inactive | inactive |  | inactive | inactive | inactive | inactive | zone of inhibition at 500 µg/mL (Saccharomyces cerevisiae [4]; NCIM 3044, 96 h, read-out: DIZ): 8.7 mm; IC50 (Saccharomyces cerevisiae [14]): 192 µg/mL (≈ 449 µM); MIC (Saccharomyces cerevisiae [14]): 384 µg/mL (≈ 898 µM); zone of inhibition at 1000 µg/mL (Saccharomyces cerevisiae [6]; NCIM 3044, 96 h, read-out: DIZ): 19 mm; zone of inhibition at 500 µg/mL (Bacillus cereus [8]): 2.8 mm; zone of inhibition at 1000 µg/mL (Bacillus cereus [12]): 6 mm |
| N#CC1CCCN(c2ncc(-c3cccc(F)c3)c3[nH]c(CCc4ccccc4)nc23)C1 (stereo not drawn) | inactive | inactive | inactive | inactive |  | inactive | inactive |  | inactive | inactive | inactive | inactive | zone of inhibition at 500 µg/mL (Bacillus cereus [8]): 6.7 mm; zone of inhibition at 1000 µg/mL (Bacillus cereus [12]): 13 mm |
| CC(C)(C)Cc1nc2c(N3CCCC(C#N)C3)ncc(-c3cccc(F)c3)c2[nH]1 (stereo not drawn) | inactive | inactive | inactive | inactive | inactive | inactive | inactive | inactive | inactive | inactive | inactive | inactive |  |
| N#CC1CCCN(c2ncc(-c3cccc(F)c3)c3[nH]c(C4CCCCC4)nc23)C1 (stereo not drawn) | inactive | inactive | inactive | inactive | inactive |  |  | inactive | inactive | inactive | inactive | inactive | zone of inhibition at 1000 µg/mL (Escherichia coli [9]): 12.5 mm; zone of inhibition at 500 µg/mL (Escherichia coli [10]): 6 mm |
| N#CC1CCCN(c2ncc(-c3cccc(F)c3)c3[nH]c(Cc4cc(F)ccc4F)nc23)C1 (stereo not drawn) | inactive | inactive | inactive | inactive | inactive | inactive | inactive | inactive | inactive | inactive | inactive | inactive |  |
| Cn1cc(-c2cnc(N3CCC(C#N)CC3)c3nc(Cc4ccc(Cl)cc4Cl)[nH]c23)cn1 | inactive | inactive | inactive | inactive | inactive | inactive | inactive | inactive | inactive | inactive | inactive | inactive |  |
| N#CC1CCCN(c2ncc(-c3cccc(F)c3)c3[nH]c(CSc4ccccc4)nc23)C1 (stereo not drawn) | inactive | inactive | inactive | inactive | inactive | inactive | inactive | inactive |  | inactive | inactive |  | zone of inhibition at 500 µg/mL (Pseudomonas aeruginosa [1]): 5.2 mm; zone of inhibition at 1000 µg/mL (Pseudomonas aeruginosa [11]): 11 mm |
| Cn1cc(-c2cnc(N3CCC(C#N)CC3)c3nc(CCc4ccccc4)[nH]c23)cn1 |  |  | inactive | inactive | inactive |  |  | inactive | inactive |  |  | inactive | zone of inhibition at 1000 µg/mL (Staphylococcus aureus [2]; MTCC 4102, 20 h, read-out: DIZ): 10 mm; zone of inhibition at 500 µg/mL (Staphylococcus aureus [3]; MTCC 4102, 20 h, read-out: DIZ): 4.2 mm; zone of inhibition at 1000 µg/mL (Candida albicans [5]): 22 mm; zone of inhibition at 500 µg/mL (Candida albicans [7]): 12.3 mm; zone of inhibition at 1000 µg/mL (Escherichia coli [9]): 12 mm; zone of inhibition at 500 µg/mL (Escherichia coli [10]): 5.4 mm; IC50 (Candida albicans [13]): 73.7 µg/mL (≈ 179 µM); MIC (Candida albicans [13]): 195 µg/mL (≈ 475 µM) |
| OC(Cn1cncn1)(Cn1cncn1)c1ccc(F)cc1F [FLUCONAZOLE] |  |  |  |  |  |  |  |  |  |  |  |  | diameter of the inhibition zone (DIZ) (Bacillus cereus [15]): inactive; diameter of the inhibition zone (DIZ) (Pseudomonas aeruginosa [16]): inactive; diameter of the inhibition zone (DIZ) (Escherichia coli [17]): inactive; zone of inhibition at 10 µg/mL (Saccharomyces cerevisiae [18]; NCIM 3044, 96 h, read-out: DIZ): 24 mm; zone of inhibition at 10 µg/mL (Candida albicans [19]; MTCC 183, 96 h, read-out: DIZ): 25 mm; diameter of the inhibition zone (DIZ) (Staphylococcus aureus [20]): inactive |
| CCC(CC)c1nc2c(N3CCCC(C#N)C3)ncc(-c3cccc(F)c3)c2[nH]1 (stereo not drawn) | inactive | inactive | inactive | inactive | inactive | inactive | inactive | inactive | inactive | inactive | inactive | inactive |  |
| CN[C@@H]1[C@H](O[C@H]2[C@H](O[C@H]3[C@H](O)[C@@H](O)[C@H](N=C(N)N)[C@@H](O)[C@@H]3N=C(N)N)O[C@@H](C)[C@]2(O)C=O)O[C@@H](CO)[C@H](O)[C@H]1O [STREPTOMYCIN] |  |  |  |  |  |  |  |  |  |  |  |  | zone of inhibition at 10 µg/mL (Bacillus cereus [15]; NCIM 2155, 20 h, read-out: DIZ): 20.2 mm; zone of inhibition at 10 µg/mL (Pseudomonas aeruginosa [16]; MTCC 4727, 20 h, read-out: DIZ): 20.9 mm; zone of inhibition at 10 µg/mL (Escherichia coli [17]; NCIM 2931, 20 h, read-out: DIZ): 21.4 mm; diameter of the inhibition zone (DIZ) (Saccharomyces cerevisiae [18]): inactive; diameter of the inhibition zone (DIZ) (Candida albicans [19]): inactive; zone of inhibition at 10 µg/mL (Staphylococcus aureus [20]; MTCC 4102, 20 h, read-out: DIZ): 23.8 mm |
